# Results from US8637493B2, “Methods for treating glioblastoma” (University of Massachusetts, priority 2009, dated 2014).
# “And” between values parts separate entries of the source, which are not always exact repeats. Identical values can stand only once.
# What was measured:
# U373NS [1] = test: Ex vivo treated cells, subcutaneous xenograft tumor initiation, U373NS; type: in vivo, nude mice; details: 3 × 10^6 live cells injected, TMZ 200 μM, DAPT 5 μM
# Protocol: (§1) U87NS and U373NS neurospheres were dissociated and 2.5×10^4 cells/ml were plated in defined media and treated with DMSO, TMZ-only (200 μM), DAPT-only (1 μM or 5 μM), or TMZ+DAPT as described for recovery assays. After 7 days, 3×10^6 live cells were counted using trypan blue and re-suspended in 100 μl PBS. Cells were subcutaneously injected into the flanks of nude mice. Mice were monitored for tumor formation for up to 120 days post-injection and euthanized when tumors reached volumes of 1.5 to 2 cm^3.
# as §1, with “U373NS” for “U87NS and U373NS”, “(FIG. 8B and Table 1).” for “as described for recovery assays.”, “cm^3. The control DMSO cells formed palpable tumors in an average of 15 days for 7/7 xenografts, and DAPT-only treated cells formed tumors in an average of 16 days for 7/7 xenografts. […] Palpable tumors formed for 6/7 TMZ-treated U373NS xenografts in an average of 43 days. […] Only 1/7 mice formed a tumor in the TMZ+DAPT U373NS xenografts with an extended latency of 96 days.” for “cm^3.”
# GS7-2 = test: Neurosphere formation / recovery / secondary neurosphere assay, GS7-2; type: cell-based, human
# Protocol: (§2) The effect of chemotherapy on neurosphere formation was assayed in glioma neurosphere cultures. Cultures are treated with a single dose of the agent, e.g., TMZ and multiple doses of a GSI, e.g., DAPT to inhibit the Notch pathway. After the Treatment phase, the number of initial spheres (counted about 7 days after TMZ treatment) represents the number of proliferating CSC/progenitors (FIG. 1 for schematic). Recovery (counted 14 days after TMZ treatment) includes enlargement of the initial spheres and new spheres formed when CSC/progenitor cells quiescent as a result of chemotherapy resume cell proliferation. […] The cells used included U87NS, a neurosphere culture converted to neurosphere growth in defined medium from U87MG (an old Swedish line that is grown in conventional serum conditions); GS7-2, GS8-26 and GS6-22 primary neurosphere cultures that were obtained from grade IV GBM patient tumor samples and AS5-15, which was obtained from a grade III anaplastic astrocytoma.
# (§3) To determine the effects of TMZ plus DAPT neurospheres, cells were plated as previously described (Mihaliak et al., Cancer Letts. 296, 168-177 (2010)). Immediately after plating, cells were treated with DMSO, DAPT-only, LY411,575 (LY)-only TMZ-only, TMZ+DAPT or TMZ+LY. The initial neurospheres were counted on day 7 for the converted cell lines and on day 10 for the slower growing primary lines. Neurosphere recovery was measured on day 14 or 20. The neurospheres were dissociated, re-plated and secondary neurosphere formation was measured on day 21 or 30.
# (§4) Neurosphere cultures were dissociated to single cell suspensions by pH dissociation followed by filtration through 40 μm screens. For the neurosphere assay, 3,000 cells/ml of defined medium were seeded in 6-well plates. Immediately after plating, cells were treated with DMSO (Research Organics, Cleveland, Ohio) carrier control, TMZ-only, DAPT-only, or TMZ+DAPT. Additional DAPT was added on days 2 and 4. Neurospheres consisting of 10 or more cells were counted under a light microscope on day 7 for the converted cell lines. Primary lines have a slightly longer doubling time and were counted on day 10. After counting the neurospheres from the initial treatment, 2 ml of fresh defined medium was added to each well. DAPT was also added once more to the DAPT-only and TMZ+DAPT samples, and the cells were incubated for an additional 7 or 10 days. Neurospheres from the recovery period were counted on day 14 or day 20. To analyze secondary neurosphere formation, cells were collected, pelleted and dissociated to a single cell suspension by the pH method. Cells from each well were re-seeded into 6-well plates with 2 ml of defined medium. The number of secondary neurospheres formed by converted cell lines and primary cultures were counted on day 21 or day 30, respectively. All recovery assays were repeated with a minimum of 6 replicate sets of time points.
# (§5) For the samples labeled “PRE-treat”, a single dose of DAPT was administered when the cells were plated, and then TMZ was added to the medium 24 hours later. For the “CO-treat” samples, single doses of TMZ and DART were added simultaneously when the cells were plated. Finally, samples labeled “POST-treat” were treated with TMZ, and then DAPT was added 24 hours later.
# U373NS [2] = test: Neurosphere formation / recovery / secondary neurosphere assay, U373NS; type: cell-based, human
# Protocol: as §2, §3, §4
# U87NS = test: Neurosphere formation / recovery / secondary neurosphere assay, U87NS; type: cell-based, human
# Protocol: as §2, §3, §4, §5
# U87NS cells = test: Ex vivo treated cells, subcutaneous xenograft tumor initiation, U87NS; type: in vivo, nude mice
# Protocol: U87NS cells were treated in vitro as follows. The cells were dissociated and 2.5×10^4 cells/ml were plated defined media and treated with DMSO, TMZ-only (200 μM), DAPT-only (1 μM or 5 μM), or TMZ+DAPT as described for recovery assays (FIG. 8A and Table 1). After 7 days, 2.5×10^5 live cells were counted using trypan blue and re-suspended in 100 μl PBS and subcutaneously injected into nude mice. Mice were monitored for tumor formation for up to 120 days post-injection and euthanized when tumors reached volumes of 1.5 to 2 cm3. Tumor initiation was observed when a palpable tumor formed. […] Impressively, none of the mice injected with TMZ+DAPT treated cells (0/7 mice) formed tumors, even after 90 days. When a higher number of live U87NS cells (3×10^6) were injected, we saw a similar trend (Table 1). Mice with 3×10^6 cells for U87NS DMSO (2/2 mice) and DAPT-only (2/2 mice) xenografts developed palpable tumors at 3 and 4 days, respectively, and 3/4 mice formed tumors in TMZ-only treated cells with an average latency of 25 days. With this higher number of cells injected, U87NS TMZ+DAPT xenografts formed tumors in only 1/4 mice with a longer latency of 43 days.
# as §1
# [3] = in vivo; cited from earlier work
# [4] = Toxicity by body weight during drug administration
# Protocol: Tolerance of the drug treatments was determined by measuring the weight of the mice during the period of drug administration.
# During drug administration, toxicity was determined by weight loss.
# [5] = 10 μM DAPT alone, counted day 7
# [6] = low concentrations (1-5 μM) DAPT-only, day 7
# [7] = 2.5 × 10^5 live cells injected, TMZ 200 μM, DAPT 1 μM
# [8] = secondary neurospheres divided by recovery neurospheres
compound,measurement,setting,value
"C[C@H](NC(=O)Cc1cc(F)cc(F)c1)C(=O)N[C@H](C(=O)OC(C)(C)C)c1ccccc1 [DAPT, N-[N-(3,5-difluorophenacetyl)-L-alanyl]-(S)-phenylglycine t-butyl ester]",Ex vivo Treated Xenograft Average Latency,U373NS [1],16 days
same,Ex vivo Treated Xenograft Incidence,U373NS [1],7/7
same,decrease of neurosphere formation compared to DMSO controls,"GS7-2; 10 μM DAPT alone, counted day 10",49%
same,inhibition of neurosphere formation,"GS7-2; low concentrations (1-5 μM) DAPT-only, day 10",minimal inhibition
same,decrease of neurosphere formation compared to DMSO controls,U373NS [2]; [5],39%
same,inhibition of neurosphere formation,U373NS [2]; [6],minimal inhibition
same,decrease of neurosphere formation compared to DMSO controls,U87NS; [5],41%
same,inhibition of neurosphere formation,U87NS; [6],minimal inhibition
same,Ex vivo Treated Xenograft Average Latency,U87NS cells; [7],14 days
same,Ex vivo Treated Xenograft Incidence,U87NS cells; [7],7/7
same,Ex vivo Treated Xenograft Average Latency,U87NS cells; 3 × 10^6 live cells injected,4 days
same,Ex vivo Treated Xenograft Incidence,U87NS cells; 3 × 10^6 live cells injected,2/2
"Cn1nnc2c(C(N)=O)ncn2c1=O [TMZ, temozolomide]",Ex vivo Treated Xenograft Average Latency,U373NS [1],43 days and 45 days
same,Ex vivo Treated Xenograft Incidence,U373NS [1],6/7
same,concentration of TMZ in the cerebral spinal fluid,[3],about 5 μM
same,secondary neurosphere formation relative to DAPT POST-treatment,"GS7-2; TMZ-only treatment, P<0.0001",85.7 fold
same,recovery: increase in the number of neurospheres,"GS7-2; day 20 relative to day 10, DAPT 1 μM",1.8 fold
same,"secondary neurosphere formation, TMZ-only treated culture relative to TMZ+DAPT treated culture","GS7-2; day 30, P<0.001",45 fold
same,average number of cells per neurosphere capable of self-renewal,GS7-2; [8],38 cells per neurosphere
same,"body weight, initially after TMZ injections",[4],slight weight loss
same,"body weight, remainder of treatment / final weight",[4],no significant weight difference
same,recovery: increase in the number of neurospheres,"U373NS [2]; day 14 relative to day 7, TMZ 200 μM, DAPT 5 μM",1.5 fold
same,"secondary neurosphere formation, TMZ-only treated culture relative to TMZ+DAPT treated culture","U373NS [2]; day 21, P<0.001",23 fold
same,average number of cells per neurosphere capable of self-renewal,U373NS [2]; [8],3 cells per neurosphere
same,secondary neurosphere formation relative to DAPT POST-treatment,"U87NS; TMZ-only treatment, P<0.001",5.7 fold
same,recovery: increase in the number of neurospheres,"U87NS; day 14 relative to day 7, TMZ 200 μM, DAPT 1 μM",2 fold
same,"secondary neurosphere formation, TMZ-only treated culture relative to TMZ+DAPT treated culture","U87NS; day 21, P<0.0001",36 fold
same,average number of cells per neurosphere capable of self-renewal,U87NS; [8],8 cells per neurosphere
same,Ex vivo Treated Xenograft Average Latency,U87NS cells; [7],32 days
same,Ex vivo Treated Xenograft Incidence,U87NS cells; [7],6/7
same,Ex vivo Treated Xenograft Average Latency,U87NS cells; 3 × 10^6 live cells injected,25 days
same,Ex vivo Treated Xenograft Incidence,U87NS cells; 3 × 10^6 live cells injected,3/4
